Measurements as given in US5861296A, “Purified thermostable inorganic pyprophosphatase obtainable from thermococcus litoralis” (New England Biolabs, Inc., priority 1997, dated 1999).
Blank lines part the entries; values can stand above or below the molecule they belong to.

Assays:
[1] = target: Thermococcus litoralis inorganic pyrophosphatase (PPase), wild type, SEQ ID NO: 10 (Thermococcus litoralis, UniProt P77992); conditions: read-out: apparent Km for PPi (inorganic pyrophosphate); initial velocities at low substrate concentrations, Mg2+/PPi ratio of one; Lineweaver-Burke plot
Protocol: The PPase is incubated at 75° C. for 10 minutes in a 100 μl reaction containing 30 mM Tris pH 9.0, 1.5 mM MgCl2 and 1.5 mM sodium pyrophosphate. The enzyme is then cooled quickly to room temperature and complexed with 0.9 ml of Taussky-Schorr reagent (5.0 g ferrous sulfate, 10 ml 10% ammonium molybdate in 10N sulfuric acid, in a final solution volume of 100 ml.) After 10 minutes, an absorbance reading is taken at 660 nm. The absorbance reading was compared to a standard curve using Sigma's (St. Louis, Mo.) phosphorous standard (#661-9). One standard unit will liberate 1.0 μmole of inorganic orthophosphate per minute under the above conditions.

[2] = target: the molecule itself; assay: gel filtration on Superose 12 HR 10/30 (125 kDa) against the subunit mass by SDS-PAGE and DNA sequence
Protocol: The molecular mass of the *T. litoralis* inorganic pyrophosphatase was estimated by gel filtration in a Superose 12 HR 10/30 (Pharmacia; Piscataway, N.J.) (10×300 mm). The column was equilibrated with 50 mM Tris-HCl pH 7.5 containing 100 mM NaCl and run at a flow rate of 0.5 ml/min. The Superose 12 HR 10/30 had been previously calibrated with different standard proteins: Catalase (232 kDa), Aldolase (158 kDa), Bovine Serum Albumin (67 KDa), Ovalbumin (43 kDa), Chymotrypsinogen (25 kDa), and Ribonuclease A (13.7 kDa) (all from Pharmacia; Piscataway, N.J.). From the plot of log (molecular mass) versus the distribution coefficient (Kav), a value of 125 kDa was calculated for the molecular mass of *T. litoralis* inorganic pyrophosphatase. Since the apparent molecular mass of the monomer was determined to be 20 to 21 kDa on an SDS-PAGE and 19,666 Da by the DNA sequence, the enzyme is probably homohexameric. The homohexameric structure of the *Thermococcus litoralis* inorganic pyrophosphatase agrees with other known cytoplasmic PPases from eubacterial and archaeal sources which tend to be tetrameric or hexameric complexes with single subunits of 19 to 23 kDa.

Km [1]: 1 mM
Molecule: O=P(O)(O)OP(=O)(O)O [PPi, inorganic pyrophosphate]

B1: Thermococcus litoralis inorganic pyrophosphatase subunit (enzyme)
chain: MNPFHDLEPGPEVPEVVYALIEIPKGSRNKYELDKKTGLIKLDRVLYSPFHYPVDYGIIPQTWYDDDDPFDIMVIMREPTYPGVLIEARPIGLFKMIDSGDKDYKVLAVPVEDPYFNDWKDISDVPKAFLDEIAHFFQRYKELQGKEIIVEGWENAEKAKQEILRAIELYKEKFKK
binding result [2]: binds
